Experimental data: patent publication US20230085307A1, “PYRIDAZINONE COMPOUND AND HERBICIDE” (NISSAN CHEMICAL CORPORATION, priority 2019, published 2023)

Experiments:
late watergrass = assay: Test Example 1: herbicidal activity, application before weed generation under submerged conditions (Table 16, symbol A); type: in vivo, late watergrass (Echinochloa oryzicola); details: amount of applied herbicide 320 g/ha
Outline: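 Alluvial soil was flooded to 4 cm depth, weed seeds were sown mixed and 2.5-leaf rice seedlings were transplanted. On sowing day, the compound's emulsion, diluted in water to a set dose, was applied to the water surface. Plants grew at 25–30 °C and were scored 0–5 after three weeks.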

Japanese bulrush = assay: Test Example 2: herbicidal activity, application during weed generation under submerged conditions (Table 17, symbol B); type: in vivo, Japanese bulrush (Schoenoplectus juncoides); details: AAH 320 g/ha; application during weed generation, submerged conditions
Outline: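 3-wk visual-criteria score after one water-surface dose. Emulsion formulation, water-diluted to set rate; applied at 1–2 leaf stage; alluvial soil, 4 cm standing water; seeds co-sown; greenhouse 25–30° C.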

Chinese sprangletop = assay: Test Example 3: herbicidal effect by foliage application, Wagner pot (Table 18, symbol D); type: in vivo, chinese sprangletop (Leptochloa chinensis); details: 320 g/ha
Outline: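 Plants were sown in alluvial soil held under 0.1–0.5 cm standing water and grown 14 days in a greenhouse at 25–30 °C. An emulsifiable formulation, water-diluted to the set dose, was then sprayed onto the foliage, and effects were scored three weeks later using previously defined criteria.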

green foxtail [1] = assay: Test Example 4: herbicidal effect by soil treatment (Table 19, symbol G); type: in vivo, green foxtail (Setaria viridis); details: amount of applied herbicide 320 g/ha
Outline: (§1)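 Step 1: sow seeds in sterilized diluvial soil, cover ~1.5 cm. Step 2: spray diluted emulsion onto soil surface at predetermined rate. Step 3: greenhouse, 25–30° C, three weeks. Step 4: grade effect on each plant by earlier criteria.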

barnyard grass = assay: Test Example 4: herbicidal effect by soil treatment (Table 19, symbol H); type: in vivo, barnyard grass (Echinochloa crus-galli); details: amount of applied herbicide 320 g/ha
Outline: as §1

wild oat [2] = assay: Test Example 4: herbicidal effect by soil treatment (Table 19, symbol I); type: in vivo, wild oat (Avena fatua); details: amount of applied herbicide 320 g/ha
Outline: as §1

Italian ryegrass = assay: Test Example 4: herbicidal effect by soil treatment (Table 19, symbol K); type: in vivo, Italian ryegrass (Lolium multiflorum); details: amount of applied herbicide 320 g/ha
Outline: as §1

windgrass [3] = assay: Test Example 4: herbicidal effect by soil treatment (Table 19, symbol L); type: in vivo, windgrass (Apera spica-venti); details: amount of applied herbicide 320 g/ha
Outline: as §1

lambsquarters [4] = assay: Test Example 4: herbicidal effect by soil treatment (Table 19, symbol O); type: in vivo, lambsquarters (Chenopodium album); details: amount of applied herbicide 320 g/ha
Outline: as §1

chickweed = assay: Test Example 4: herbicidal effect by soil treatment (Table 19, symbol P); type: in vivo, common chickweed (Stellaria media); details: amount of applied herbicide 320 g/ha
Outline: as §1

green foxtail [5] = assay: Test Example 5: herbicidal effect by foliage application, plastic box (Table 20, symbol G); type: in vivo, green foxtail (Setaria viridis); details: 320 g/ha; for G: green foxtail, herbicidal effect grade: foliage application, three weeks after application; for herbicidal effect on G: green foxtail (evaluation grade 0-5): foliage application after 14-day growth, evaluated three weeks after application
Outline: (§2)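 Foliar spray test: emulsion formulation diluted in water to a set application rate, sprayed onto 14-day-old plants raised in diluvial soil at 25° C to 30° C under glass. Both herbicidal effect and crop effect rated visually three weeks later.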

wild oat [6] = assay: Test Example 5: herbicidal effect by foliage application, plastic box (Table 20, symbol I); type: in vivo, wild oat (Avena fatua); details: 320 g/ha; for I: wild oat, herbicidal effect grade: foliage application, three weeks after application; for herbicidal effect on I: wild oat (evaluation grade 0-5): foliage application after 14-day growth, evaluated three weeks after application
Outline: as §2

windgrass [7] = assay: Test Example 5: herbicidal effect by foliage application, plastic box (Table 20, symbol L); type: in vivo, windgrass (Apera spica-venti); details: 320 g/ha; for L: windgrass, herbicidal effect grade: foliage application, three weeks after application; for herbicidal effect on L: windgrass (evaluation grade 0-5): foliage application after 14-day growth, evaluated three weeks after application
Outline: as §2

velvetleaf = assay: Test Example 5: herbicidal effect by foliage application, plastic box (Table 20, symbol M); type: in vivo, velvetleaf (Abutilon theophrasti); details: 320 g/ha; for M: velvetleaf, herbicidal effect grade: foliage application, three weeks after application; for herbicidal effect on M: velvetleaf (evaluation grade 0-5): foliage application after 14-day growth, evaluated three weeks after application
Outline: as §2

redroot pigweed = assay: Test Example 5: herbicidal effect by foliage application, plastic box (Table 20, symbol N); type: in vivo, redroot pigweed (Amaranthus retroflexus); details: 320 g/ha; for N: redroot pigweed, herbicidal effect grade: foliage application, three weeks after application; for herbicidal effect on N: redroot pigweed (evaluation grade 0-5): foliage application after 14-day growth, evaluated three weeks after application
Outline: as §2

lambsquarters [8] = assay: Test Example 5: herbicidal effect by foliage application, plastic box (Table 20, symbol O); type: in vivo, lambsquarters (Chenopodium album); details: 320 g/ha; for O: lambsquarters, herbicidal effect grade: foliage application, three weeks after application; for herbicidal effect on O: lambsquarters (evaluation grade 0-5): foliage application after 14-day growth, evaluated three weeks after application
Outline: as §2

persian speedwell = assay: Test Example 5: herbicidal effect by foliage application, plastic box (Table 20, symbol R); type: in vivo, Persian speedwell (Veronica persica); details: 320 g/ha; for R: persian speedwell, herbicidal effect grade: foliage application, three weeks after application; for herbicidal effect on R: persian speedwell (evaluation grade 0-5): foliage application after 14-day growth, evaluated three weeks after application
Outline: as §2

Structure (SMILES)	Herbicidal effect, A: late watergrass (late watergrass)	herbicidal effect rating, B: Japanese bulrush (Japanese bulrush)	herbicidal effect on Chinese sprangletop (D) (Chinese sprangletop)	G: green foxtail, herbicidal effect grade (green foxtail [1])	H: barnyard grass, herbicidal effect grade (barnyard grass)	I: wild oat, herbicidal effect grade (wild oat [2])	K: Italian ryegrass, herbicidal effect grade (Italian ryegrass)	L: windgrass, herbicidal effect grade (windgrass [3])	O: lambsquarters, herbicidal effect grade (lambsquarters [4])	P: chickweed, herbicidal effect grade (chickweed)	G: green foxtail, herbicidal effect grade (green foxtail [5])	I: wild oat, herbicidal effect grade (wild oat [6])	L: windgrass, herbicidal effect grade (windgrass [7])	M: velvetleaf, herbicidal effect grade (velvetleaf)	N: redroot pigweed, herbicidal effect grade (redroot pigweed)	O: lambsquarters, herbicidal effect grade (lambsquarters [8])	R: persian speedwell, herbicidal effect grade (persian speedwell)	Herbicidal effect by soil treatment, G: green foxtail (green foxtail [1])	Herbicidal effect by soil treatment, H: barnyard grass (barnyard grass)	Herbicidal effect by soil treatment, I: wild oat (wild oat [2])	also measured
COc1ccccc1-c1sc2cc(OCC3CC3)ccc2c1-c1c(O)c(C)nn(C)c1=O [3-129]	5 (Herbicidal rate of 90% or more (almost completely withered))	3 (Herbicidal rate of 40% or more and less than 70%)	4 (Herbicidal rate of 70% or more and less than 90%)	5 (Herbicidal rate of 90% or more (almost completely withered))	4 (Herbicidal rate of 70% or more and less than 90%)	1 (Herbicidal rate of 5% or more and less than 20%)	5 (Herbicidal rate of 90% or more (almost completely withered))	5 (Herbicidal rate of 90% or more (almost completely withered))	5 (Herbicidal rate of 90% or more (almost completely withered))	3 (Herbicidal rate of 40% or more and less than 70%)	5 (Herbicidal rate of 90% or more (almost completely withered))	3 (Herbicidal rate of 40% or more and less than 70%)	5 (Herbicidal rate of 90% or more (almost completely withered))	4 (Herbicidal rate of 70% or more and less than 90%)	5 (Herbicidal rate of 90% or more (almost completely withered))	4 (Herbicidal rate of 70% or more and less than 90%)	5 (Herbicidal rate of 90% or more (almost completely withered))	–	–	–	–
COc1ccccc1-c1sc2cc(OCC3CC3(F)F)ccc2c1-c1c(O)c(C)nn(C)c1=O (centres unmarked) [3-131]	5 (Herbicidal rate of 90% or more (almost completely withered))	3 (Herbicidal rate of 40% or more and less than 70%)	3 (Herbicidal rate of 40% or more and less than 70%)	4 (Herbicidal rate of 70% or more and less than 90%)	2 (Herbicidal rate of 20% or more and less than 40%)	3 (Herbicidal rate of 40% or more and less than 70%)	5 (Herbicidal rate of 90% or more (almost completely withered))	3 (Herbicidal rate of 40% or more and less than 70%)	5 (Herbicidal rate of 90% or more (almost completely withered))	4 (Herbicidal rate of 70% or more and less than 90%)	5 (Herbicidal rate of 90% or more (almost completely withered))	5 (Herbicidal rate of 90% or more (almost completely withered))	5 (Herbicidal rate of 90% or more (almost completely withered))	4 (Herbicidal rate of 70% or more and less than 90%)	5 (Herbicidal rate of 90% or more (almost completely withered))	5 (Herbicidal rate of 90% or more (almost completely withered))	5 (Herbicidal rate of 90% or more (almost completely withered))	–	–	–	–
CCCC(=O)Oc1c(C)nn(C)c(=O)c1-c1c(-c2ccc(OC(F)(F)F)cc2)sc2cc(F)ccc12 [3-144]	5 (Herbicidal rate of 90% or more (almost completely withered))	3 (Herbicidal rate of 40% or more and less than 70%)	4 (Herbicidal rate of 70% or more and less than 90%)	–	–	–	–	–	–	–	–	–	–	–	–	–	–	0 (Herbicidal rate of 5% or less (almost no effect))	3 (Herbicidal rate of 40% or more and less than 70%)	0 (Herbicidal rate of 5% or less (almost no effect))	Herbicidal effect by soil treatment, K: Italian ryegrass (Italian ryegrass): 0 (Herbicidal rate of 5% or less (almost no effect)); Herbicidal effect by soil treatment, L: windgrass (windgrass [3]): 0 (Herbicidal rate of 5% or less (almost no effect)); Herbicidal effect by soil treatment, O: lambsquarters (lambsquarters [4]): 3 (Herbicidal rate of 40% or more and less than 70%); Herbicidal effect by soil treatment, P: chickweed (chickweed): 0 (Herbicidal rate of 5% or less (almost no effect)); herbicidal effect on G: green foxtail (evaluation grade 0-5) (green foxtail [5]): 5 (Herbicidal rate of 90% or more (almost completely withered)); herbicidal effect on I: wild oat (evaluation grade 0-5) (wild oat [6]): 0 (Herbicidal rate of 5% or less (almost no effect)); herbicidal effect on L: windgrass (evaluation grade 0-5) (windgrass [7]): 0 (Herbicidal rate of 5% or less (almost no effect)); herbicidal effect on M: velvetleaf (evaluation grade 0-5) (velvetleaf): 4 (Herbicidal rate of 70% or more and less than 90%); herbicidal effect on N: redroot pigweed (evaluation grade 0-5) (redroot pigweed): 5 (Herbicidal rate of 90% or more (almost completely withered)); herbicidal effect on O: lambsquarters (evaluation grade 0-5) (lambsquarters [8]): 5 (Herbicidal rate of 90% or more (almost completely withered)); herbicidal effect on R: persian speedwell (evaluation grade 0-5) (persian speedwell): 5 (Herbicidal rate of 90% or more (almost completely withered))
COc1ccc2c(-c3c(OC(=O)C4CCCCC4)c(C)nn(C)c3=O)c(-c3ccccc3OC)sc2c1 [3-156]	5 (Herbicidal rate of 90% or more (almost completely withered))	4 (Herbicidal rate of 70% or more and less than 90%)	4 (Herbicidal rate of 70% or more and less than 90%)	–	–	–	–	–	–	–	–	–	–	–	–	–	–	0 (Herbicidal rate of 5% or less (almost no effect))	0 (Herbicidal rate of 5% or less (almost no effect))	0 (Herbicidal rate of 5% or less (almost no effect))	Herbicidal effect by soil treatment, K: Italian ryegrass (Italian ryegrass): 0 (Herbicidal rate of 5% or less (almost no effect)); Herbicidal effect by soil treatment, L: windgrass (windgrass [3]): 0 (Herbicidal rate of 5% or less (almost no effect)); Herbicidal effect by soil treatment, O: lambsquarters (lambsquarters [4]): 0 (Herbicidal rate of 5% or less (almost no effect)); Herbicidal effect by soil treatment, P: chickweed (chickweed): 3 (Herbicidal rate of 40% or more and less than 70%); herbicidal effect on G: green foxtail (evaluation grade 0-5) (green foxtail [5]): 5 (Herbicidal rate of 90% or more (almost completely withered)); herbicidal effect on I: wild oat (evaluation grade 0-5) (wild oat [6]): 4 (Herbicidal rate of 70% or more and less than 90%); herbicidal effect on L: windgrass (evaluation grade 0-5) (windgrass [7]): 5 (Herbicidal rate of 90% or more (almost completely withered)); herbicidal effect on M: velvetleaf (evaluation grade 0-5) (velvetleaf): 5 (Herbicidal rate of 90% or more (almost completely withered)); herbicidal effect on N: redroot pigweed (evaluation grade 0-5) (redroot pigweed): 5 (Herbicidal rate of 90% or more (almost completely withered)); herbicidal effect on O: lambsquarters (evaluation grade 0-5) (lambsquarters [8]): 4 (Herbicidal rate of 70% or more and less than 90%); herbicidal effect on R: persian speedwell (evaluation grade 0-5) (persian speedwell): 5 (Herbicidal rate of 90% or more (almost completely withered))
